Drawing on US10227315B2, “Mitochondrial uncouplers for treatment of metabolic diseases and cancer” (RUTGERS, THE STATE UNIVERSITY OF NEW JERSEY, priority 2016, dated 2019), this text covers EC50 and minimal effective concentration for 30 molecules.

SMILES strings stand for the structures. Where only a bound is given, the exact number is not on record here.

Test [1] relates to NIH-3T3 cells, or HepG2 cells. Description: Mitochondrial membrane potential assay, TMRE staining. It counts as cell-based. The settings on record: 2 h; two hours treatment, TMRE 100 nM; read-out: EC50, mitochondrial membrane potential reduction (TMRE staining reduced to about 50%). As for the experimental part:
Mitochondrial uncoupling may also lead to a reduction of mitochondrial membrane potential. We performed mitochondrial membrane potential assay using TMRE (tetramethylrhodamine ethyl ester) staining method with cultured mammalian cells, the NIH-3T3 cells, or HepG2 cells. Cells were seeded onto 6-well plates and cultured in DMEM medium supplemented with 10% fetal bovine serum and 2 mM glutamine. Cells were allowed to grow to logarithmic growth phase prior to experiments. The cells were treated with each individual compound at various concentrations for two hours, followed by staining with TMRE at final concentration of 100 nM for 15 minutes. The cells were then washed once with PBS, and examined under fluorescence microscopy. Cells treated with various concentrations of niclosamide ethanolamine were used as positive control. Reduction of mitochondrial TMRE staining was estimated as a quantification of mitochondrial uncoupling activity. […] The following table (Table II) summarizes the activity of individual compounds in reducing mitochondrial membrane potential in cultured mammalian cells.

In test [2] the test system is mouse myoblast C2C12 cells. The test is described as follows: Oxygen consumption rate (OCR) assay with Seahorse XF96 or XF24, mitochondrial uncoupling. In kind it is cell-based. The settings on record: 10% fetal bovine serum, in the presence of oligomycin 2.5 μM, read-out: Cmin (minimal concentration to induce ATP synthase-independent OCR increase). From the text: By definition, mitochondrial uncoupling is the decoupling of mitochondrial electron transport chain activity (mitochondrial oxidation) from ATP synthesis by mitochondrial ATP synthase. Technically, mitochondrial uncoupling activity is defined by the ability of a chemical compound to induce oxygen consumption of cells or isolated mitochondria in the presence of a mitochondrial ATP synthase inhibitor such as oligomycin. Accordingly, we determined mitochondrial uncoupling activity by oxygen consumption rate (OCR) assay with a Seahorse XF96 or a Seahorse XF24 instrument following the vendor's instruction, using mouse myoblast C2C12 cells growing in medium containing 10% fetal bovine serum. […] The minimal concentration (Cmin) of each compound under which OCR is induced in the presence of oligomycin, was determined.

Regarding `O=C(Nc1ccc([N+](=O)[O-])cc1Cl)c1cc(Cl)ccc1OC(=O)N1CCOCC1` [Compound 13, 4-Chloro-2-((2-chloro-4-nitrophenyl)carbamoyl)phenyl morpholine-4-carboxylate], the concentration giving a half-maximal response (EC50) in test [1] was less than 10 µM. Moreover, the minimal effective concentration in test [2] is less than 10 µM.
With `O=C(Nc1nc2ccc(C(F)(F)F)cc2s1)c1cc(Cl)cc2nn[nH]c12` [Compound 58, 5-Chloro-N-(6-(trifluoromethyl)benzo[d]thiazol-2-yl)-1H-benzo[d][1,2,3]triazole-7-carboxamide], the EC50 in test [1] is more than 25 µM. In addition, in test [2], the minimal effective concentration was more than 25 µM.
Take `Cc1cc(Cl)cc(C(=O)Nc2nc3ccc(C(F)(F)F)cc3s2)c1O` [Compound 37, 5-Chloro-2-hydroxy-3-methyl-N-(6-(trifluoromethyl)benzo[d]thiazol-2-yl)benzamide compound with (2R,3R,4R,5S)-6-(methylamino)hexane-1,2,3,4,5-pentaol (1:1)]: the EC50 in test [1] was less than 10 µM.
Consider `Cc1nc2cc(Cl)cc(C(=O)Nc3nc4ccc(C(F)(F)F)cc4s3)c2[nH]1` [Compound 56, 5-Chloro-2-methyl-N-(6-(trifluoromethyl)benzo[d]thiazol-2-yl)-1H-benzo[d]imidazole-7-carboxamide], for which, in test [2], the minimal effective concentration was less than 10 µM.
Consider `O=C(Nc1nc2cc(C(F)(F)F)ccc2s1)c1cc(Cl)ccc1O` [Compound 25, 5-Chloro-2-hydroxy-N-(5-(trifluoromethyl)benzo[d]thiazol-2-yl)benzamide], for which the concentration for a half-maximal effect (EC50) in test [1] is more than 25 µM. Also, in test [2], the minimal effective concentration was more than 25 µM.
With `Cc1cc(Cl)cc(C(=O)Nc2nc3ccc(OC(F)(F)F)cc3s2)c1O` [Compound 51, 5-Chloro-2-hydroxy-3-methyl-N-(6-(trifluoromethoxy)benzo[d]thiazol-2-yl)benzamide], the EC50 in test [1] was less than 10 µM. Further, in test [2], the minimal effective concentration was less than 10 µM.
Consider `O=C(Nc1nc2c(F)cc(F)cc2s1)c1cc(Cl)cc2nn[nH]c12` [Compound 59, 5-Chloro-N-(4,6-difluorobenzo[d]thiazol-2-yl)-1H-benzo[d][1,2,3]triazole-7-carboxamide], for which the minimal effective concentration in test [2] is more than 25 µM.
On the same count and under the same terms, in the case of `CN(C)Cc1cc(Cl)cc(C(=O)Nc2nc3ccc(C(F)(F)F)cc3s2)c1O` [Compound 53, 5-Chloro-3-((dimethylamino)methyl)-2-hydroxy-N-(6-(trifluoromethyl)benzo[d]thiazol-2-yl)benzamide] it was less than 10 µM; in that of `CN(C)Cc1cc(Cl)cc(C(=O)Nc2nc3ccc(OC(F)(F)F)cc3s2)c1O` [Compound 54, 5-Chloro-3-((dimethylamino)methyl)-2-hydroxy-N-(6-(trifluoromethoxy)benzo[d]thiazol-2-yl)benzamide], less than 10 µM.
For the molecule `N#Cc1ccc(NC(=O)c2cc(Cl)ccc2O)c(Cl)c1` [Compound 16, 5-Chloro-N-(2-chloro-4-cyanophenyl)-2-hydroxybenzamide], in test [1], the EC50 is less than 10 µM. For the same molecule, the minimal effective concentration in test [2] is less than 10 µM.
In the case of `O=C(Nc1ccc(F)cc1Cl)c1cc(Cl)ccc1O` [Compound 15, 5-Chloro-N-(2-chloro-4-fluorophenyl)-2-hydroxybenzamide], the EC50 in test [1] is less than 10 µM. Further, the minimal effective concentration in test [2] was less than 10 µM.
With `CN(C)CCCc1cc(Cl)cc(C(=O)Nc2nc3ccc(C(F)(F)F)cc3s2)c1O` [Compound 52, 5-Chloro-3-(3-(dimethylamino)propyl)-2-hydroxy-N-(6-(trifluoromethyl)benzo[d]thiazol-2-yl)benzamide], the minimal effective concentration in test [2] was less than 10 µM.
`CCc1nc2cc(Cl)cc(C(=O)Nc3nc4ccc(C(F)(F)F)cc4s3)c2[nH]1` [Compound 57, 5-Chloro-2-ethyl-N-(6-(trifluoromethyl)benzo[d]thiazol-2-yl)-1H-benzo[d]imidazole-7-carboxamide]: in test [2], the minimal effective concentration is more than 25 µM.
On to `O=C(Nc1nc2ccc(C(F)(F)F)cc2s1)c1cc(Cl)cc(CO)c1O` [Compound 49, 5-Chloro-2-hydroxy-3-(hydroxymethyl)-N-(6-(trifluoromethyl)benzo[d]thiazol-2-yl)benzamide], for which, in test [1], the concentration giving a half-maximal response (EC50) is more than 25 µM. Moreover, in test [2], the minimal effective concentration was more than 25 µM.
For `O=C(Nc1nc2c(C(F)(F)F)cc(C(F)(F)F)cc2s1)c1cc(Cl)ccc1O` [Compound 22, N-(4,6-Bis(trifluoromethyl)benzo[d]thiazol-2-yl)-5-chloro-2-hydroxybenzamide], the EC50 in test [1] is less than 10 µM. The minimal effective concentration in test [2] is less than 10 µM.
With `O=C(Nc1ccc(C(F)(F)F)cc1Cl)c1cc(Cl)ccc1O` [Compound 14, 5-Chloro-N-(2-chloro-4-(trifluoromethyl)phenyl)-2-hydroxybenzamide], the EC50 in test [1] is less than 10 µM. Besides, the minimal effective concentration in test [2] was less than 10 µM.
In the case of `Cc1cc(Cl)cc(C(=O)Nc2nc3cccc(C(F)(F)F)c3s2)c1O` [Compound 42, 5-Chloro-2-hydroxy-3-methyl-N-(7-(trifluoromethyl)benzo[d]thiazol-2-yl)benzamide], in test [1], the EC50 was more than 25 µM. In test [2], the minimal effective concentration was more than 25 µM.
Consider `Oc1cc(Nc2nc3ccc(C(F)(F)F)cc3s2)c(C(F)(F)F)cc1C(F)(F)F` [Compound 9, 2,4-Bis(trifluoromethyl)-5-((6-(trifluoromethyl)benzo[d]thiazol-2-yl)amino)phenol], for which, in test [1], the EC50 is more than 25 µM. In test [2], the minimal effective concentration was more than 25 µM.
Turning to `O=C(Nc1nc2ccc(C(F)(F)F)cc2s1)c1cc(Cl)ccc1O` [Compound 33, 5-Chloro-2-hydroxy-N-(6-(trifluoromethyl)benzo[d]thiazol-2-yl)benzamide ethanolamine], the EC50 in test [1] is less than 10 µM. The minimal effective concentration in test [2] was less than 10 µM.
`O=C(Nc1nc2c(C(F)(F)F)cccc2s1)c1cc(Cl)ccc1O` [Compound 32, 5-Chloro-2-hydroxy-N-(4-(trifluoromethyl)benzo[d]thiazol-2-yl)benzamide ethanolamine]: the EC50 in test [1] was less than 10 µM. In addition, the minimal effective concentration in test [2] is less than 10 µM.
In the case of `Cc1cc(Cl)cc(C(=O)Nc2nc3cc(C(F)(F)F)ccc3s2)c1O` [Compound 41, 5-Chloro-2-hydroxy-3-methyl-N-(5-(trifluoromethyl)benzo[d]thiazol-2-yl)benzamide], the EC50 in test [1] is less than 10 µM. Further, in test [2], the minimal effective concentration is less than 10 µM.
As to `O=C(Nc1nc2ccc(C(F)(F)F)cc2s1)c1cc(Cl)cc(C2CC2)c1O` [Compound 36, 5-Chloro-3-cyclopropyl-2-hydroxy-N-(6-(trifluoromethyl)benzo[d]thiazol-2-yl)benzamide], in test [1], the EC50 is less than 10 µM. Also, the minimal effective concentration in test [2] is less than 10 µM.
Take `O=C(Nc1nc2c(F)cc(C(F)(F)F)cc2s1)c1cc(Cl)ccc1O` [Compound 21, 5-Chloro-N-(4-fluoro-6-(trifluoromethyl)benzo[d]thiazol-2-yl)-2-hydroxybenzamide]: in test [1], the half-maximal effective concentration (EC50) was less than 10 µM. Besides, in test [2], the minimal effective concentration was less than 10 µM.
`O=C(Nc1nc2cccc(C(F)(F)F)c2s1)c1cc(Cl)ccc1O` [Compound 26, 5-Chloro-2-hydroxy-N-(7-(trifluoromethyl)benzo[d]thiazol-2-yl)benzamide]: in test [1], the EC50 was more than 25 µM. The minimal effective concentration in test [2] is more than 25 µM.
`O=C(Nc1nc2c(F)cc(F)cc2s1)c1cc(Cl)ccc1O` [Compound 35, 5-Chloro-N-(4,6-difluorobenzo[d]thiazol-2-yl)-2-hydroxybenzamide ethanolamine]: the EC50 in test [1] is less than 10 µM.
For `O=C(Nc1nc2ccc(C(F)(F)F)cc2s1)c1cc(Cl)cc2nc(C(F)(F)F)[nH]c12` [Compound 8, 5-Chloro-2-(trifluoromethyl)-N-(6-(trifluoromethyl)benzo[d]thiazol-2-yl)-1H-benzo[d]imidazole-7-carboxamide], the EC50 in test [1] fell in the range of 10 to 25 µM. Further, the minimal effective concentration in test [2] is 10 to 25 µM.
On to `CN(C)CCc1cc(Cl)cc(C(=O)Nc2nc3ccc(C(F)(F)F)cc3s2)c1O` [Compound 2, 5-Chloro-3-(2-(dimethylamino)ethyl)-2-hydroxy-N-(6-(trifluoromethyl)benzo[d]thiazol-2-yl)benzamide], for which, in test [2], the minimal effective concentration is less than 10 µM.
Take `Cc1cc(Cl)cc(C(=O)Nc2nc3c(C(F)(F)F)cc(C(F)(F)F)cc3s2)c1O` [Compound 50, N-(4,6-Bis(trifluoromethyl)benzo[d]thiazol-2-yl)-5-chloro-2-hydroxy-3-methylbenzamide]: in test [1], the concentration for a half-maximal effect (EC50) is less than 10 µM. Moreover, in test [2], the minimal effective concentration is less than 10 µM.
In the case of `Cc1cc(Cl)cc(C(=O)Nc2nc3c(C(F)(F)F)cccc3s2)c1O` [Compound 34, 5-Chloro-2-hydroxy-3-methyl-N-(4-(trifluoromethyl)benzo[d]thiazol-2-yl)benzamide ethanolamine], in test [1], the EC50 is less than 10 µM.
On to `CS(=O)(=O)NCCc1cc(Cl)cc(C(=O)Nc2nc3ccc(C(F)(F)F)cc3s2)c1O` [Compound 3, 5-Chloro-2-hydroxy-3-(2-(methylsulfonamido)ethyl)-N-(6-(trifluoromethyl)benzo[d]thiazol-2-yl)benzamide], for which the minimal effective concentration in test [2] was less than 10 µM.

What is called EC50 is the concentration that produces a half-maximal response.
